Measurements taken from patent publication US20160052926A1, “NOVEL PYRIMIDINE AND PYRIDINE COMPOUNDS AND USAGE THEREOF” (HUTCHISON MEDIPHARMA LIMITED, priority 2013, published 2016).

Assays:
Recombinant human FGFR2 = Recombinant human FGFR2 (Homo sapiens, UniProt P21802); experiment: Transcreener Kinase Assay of FGFR2; assay type: biochemical; conditions: read-out: FGFR2 (FP) IC50
Recombinant human FGFR1 = Recombinant human FGFR1 (Homo sapiens, UniProt P11362); experiment: Transcreener Kinase Assay of FGFR1; assay type: biochemical; conditions: read-out: FGFR1 (FP) IC50
SNU-16 = experiment: Cellular Proliferation Assay (Cell Counting Kit-8), SNU-16; assay type: cell-based; conditions: Homo sapiens, SNU-16 cells, 72 hours
Summary of the method: (§1)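 Proliferation was read as OD at 450 nm after 1 h with CCK-8, following 72 h drug exposure at 37 °C, 5% CO2. Inhibition was calculated against cells in 0.5% DMSO minus medium blank, and the 50% point reported. The compound series (10–0.004 μM, pre-addition, in 5% DMSO) was added one day after plating KG-1, SNU-16 and RT-112 at 30,000, 5,000 and 1,000 cells/well respectively.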

FGFR3 kinase = FGFR3 kinase (Homo sapiens, UniProt P22607); experiment: Z-Lyte Kinase Assay of FGFR3; assay type: biochemical
Summary of the method: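 FRET peptide-cleavage format: 1 h kinase reaction at RT (25-30[…]), then 1 h protease development, then stop and dual-emission read (Ex400, Em445/520 nm). Working solutions: kinase 0.7 μg/ml, Tyr 4 peptide 4 μM, ATP 300 uM in 1.33× buffer; eight compound concentrations from 1 μM, 2% DMSO final.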

KG-1 = experiment: Cellular Proliferation Assay (Cell Counting Kit-8), KG-1; assay type: cell-based; conditions: Homo sapiens, KG1 cells, 72 hours
Summary of the method: as §1

RT-112 = experiment: Cellular Proliferation Assay (Cell Counting Kit-8), RT-112; assay type: cell-based; conditions: Homo sapiens, RT-112 cells, 72 hours
Summary of the method: as §1

Sequence of FGFR3 kinase (P22607 23-806): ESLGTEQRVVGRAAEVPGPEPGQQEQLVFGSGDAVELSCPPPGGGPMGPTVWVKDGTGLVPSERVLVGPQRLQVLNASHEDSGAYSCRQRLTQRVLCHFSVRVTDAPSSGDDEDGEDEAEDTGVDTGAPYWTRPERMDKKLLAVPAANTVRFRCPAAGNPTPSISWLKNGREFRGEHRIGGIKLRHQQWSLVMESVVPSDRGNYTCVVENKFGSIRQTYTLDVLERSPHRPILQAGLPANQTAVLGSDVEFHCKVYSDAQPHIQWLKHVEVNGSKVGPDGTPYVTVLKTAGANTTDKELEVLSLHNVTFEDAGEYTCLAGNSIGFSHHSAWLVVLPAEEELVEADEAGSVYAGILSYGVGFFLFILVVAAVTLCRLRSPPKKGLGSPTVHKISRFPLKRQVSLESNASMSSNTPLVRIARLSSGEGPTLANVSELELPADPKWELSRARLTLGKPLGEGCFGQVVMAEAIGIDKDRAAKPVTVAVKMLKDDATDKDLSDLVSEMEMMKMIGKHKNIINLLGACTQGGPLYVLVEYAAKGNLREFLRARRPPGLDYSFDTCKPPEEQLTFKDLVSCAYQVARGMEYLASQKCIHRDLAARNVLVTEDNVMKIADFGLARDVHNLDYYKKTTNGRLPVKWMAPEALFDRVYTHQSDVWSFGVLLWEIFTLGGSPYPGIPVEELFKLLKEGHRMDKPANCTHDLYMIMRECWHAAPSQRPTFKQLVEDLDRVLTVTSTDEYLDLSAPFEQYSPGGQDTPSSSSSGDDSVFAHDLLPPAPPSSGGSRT
Sequence of Recombinant human FGFR2 (P21802 22-821): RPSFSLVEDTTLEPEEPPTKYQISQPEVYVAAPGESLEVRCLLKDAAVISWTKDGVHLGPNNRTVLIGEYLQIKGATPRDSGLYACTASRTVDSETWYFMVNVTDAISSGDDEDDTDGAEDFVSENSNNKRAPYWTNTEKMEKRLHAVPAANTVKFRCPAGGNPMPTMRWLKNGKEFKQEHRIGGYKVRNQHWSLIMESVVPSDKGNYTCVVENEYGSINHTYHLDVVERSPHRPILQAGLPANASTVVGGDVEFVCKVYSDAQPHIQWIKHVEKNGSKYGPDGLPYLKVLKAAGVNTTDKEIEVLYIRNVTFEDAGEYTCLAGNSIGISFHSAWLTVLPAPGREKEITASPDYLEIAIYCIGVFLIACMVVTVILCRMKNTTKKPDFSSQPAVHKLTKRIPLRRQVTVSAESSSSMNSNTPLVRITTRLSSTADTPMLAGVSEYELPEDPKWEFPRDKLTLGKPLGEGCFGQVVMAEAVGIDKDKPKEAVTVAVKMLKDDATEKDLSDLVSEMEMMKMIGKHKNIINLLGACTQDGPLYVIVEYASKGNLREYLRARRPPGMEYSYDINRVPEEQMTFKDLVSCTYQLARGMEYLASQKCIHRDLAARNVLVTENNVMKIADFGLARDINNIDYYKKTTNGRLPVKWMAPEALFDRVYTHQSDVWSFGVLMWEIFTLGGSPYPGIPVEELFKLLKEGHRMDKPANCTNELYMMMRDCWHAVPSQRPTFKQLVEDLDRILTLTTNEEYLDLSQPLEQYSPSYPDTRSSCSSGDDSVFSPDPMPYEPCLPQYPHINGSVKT
Sequence of Recombinant human FGFR1 (P11362 22-822): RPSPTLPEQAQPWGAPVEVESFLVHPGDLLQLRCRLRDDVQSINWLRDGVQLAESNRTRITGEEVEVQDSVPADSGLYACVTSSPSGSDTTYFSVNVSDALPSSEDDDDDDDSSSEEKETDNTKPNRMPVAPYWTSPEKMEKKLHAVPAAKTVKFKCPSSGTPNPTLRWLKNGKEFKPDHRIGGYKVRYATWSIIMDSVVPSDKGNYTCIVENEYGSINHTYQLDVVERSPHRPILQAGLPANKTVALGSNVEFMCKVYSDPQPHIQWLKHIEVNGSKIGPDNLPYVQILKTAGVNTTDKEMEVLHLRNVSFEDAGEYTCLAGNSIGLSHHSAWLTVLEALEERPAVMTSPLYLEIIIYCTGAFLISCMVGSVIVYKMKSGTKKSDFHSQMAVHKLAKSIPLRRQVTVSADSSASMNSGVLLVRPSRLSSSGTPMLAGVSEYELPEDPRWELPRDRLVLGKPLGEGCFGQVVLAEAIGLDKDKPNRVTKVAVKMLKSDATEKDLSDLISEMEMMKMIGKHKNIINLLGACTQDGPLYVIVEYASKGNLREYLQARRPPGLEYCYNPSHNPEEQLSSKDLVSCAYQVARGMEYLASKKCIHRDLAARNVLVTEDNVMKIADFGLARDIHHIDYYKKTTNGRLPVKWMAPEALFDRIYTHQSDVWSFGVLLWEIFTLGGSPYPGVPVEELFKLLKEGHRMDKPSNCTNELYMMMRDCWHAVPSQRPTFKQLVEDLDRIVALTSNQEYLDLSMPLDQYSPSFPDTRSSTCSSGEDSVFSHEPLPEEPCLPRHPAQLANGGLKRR

SMILES	IC50 (Recombinant human FGFR2)	IC50 (Recombinant human FGFR1)	IC50 (SNU-16)	IC50 (FGFR3 kinase)	IC50 (KG-1)	IC50 (RT-112)
CNC(=O)c1cc(CCc2cnc(Nc3ccc4ncnn4c3)nc2)c(F)c(OC)c1 [Compound 95]	12 nM	34 nM	33 nM	33 nM	44 nM	72 nM
CNC(=O)c1cc(CCc2cnc(Nc3cnn(CCO)c3)nc2)c(Cl)c(OC)c1 [Compound 148]	5 nM	9 nM	59 nM	14 nM	24 nM	495 nM
CNC(=O)c1cc(CCc2cnc(Nc3ccn4ccnc4c3)nc2)c(F)c(OC)c1 [Compound 66]	7 nM	18 nM	55 nM	25 nM	194 nM	201 nM
CNC(=O)c1cc(CCc2cnc(Nc3cnn(CC4CCN(C)CC4)c3)nc2)c(F)c(OC)c1 [Compound 137]	6 nM	12 nM	29 nM	7 nM	319 nM	86 nM
CCN1CCN(c2ccc(Nc3ncc(/C=C/c4cc(C(=O)NC)cc(OC)c4F)cn3)cc2)CC1 [Compound 87]	10 nM	10 nM	50 nM	36 nM	25 nM	84 nM
CONC(=O)c1cc(CCc2cnc(Nc3ccc(N4C[C@@H](C)N[C@@H](C)C4)c(C)c3)nc2)cc(OC)c1 [Compound 49]	5 nM	6 nM	18 nM	8 nM	75 nM	62 nM
CNC(=O)c1cc(COc2cnc(Nc3ccc(N4C[C@@H](C)N[C@@H](C)C4)nc3)nc2)c(F)c(OC)c1 [Compound 201]	12 nM	29 nM	19 nM	19 nM	1100 nM	66 nM
CNC(=O)c1cc(CCc2cnc(Nc3cnn(CCOC)c3)nc2)c(Cl)c(OC)c1 [Compound 127]	5 nM	9 nM	20 nM	9 nM	22 nM	66 nM
